Reference: the supplement of paper PMC11368000

Columns and labels:
Settings in all cases: exposure time: 90 min
[1] = system: 11235 (donor line of iPSC-derived cardiomyocytes); test: POD (EC05) for increase in beat frequency (positive chronotrope) vs vehicle; higher = less potent (higher point of departure)
In short: (§1)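 Cardiomyocytes derived from human iPSCs of 16 donors were grown 14 days in gelatin-coated 384-well plates, loaded 2 h with a fluorescent Ca2+ dye, then exposed for 90 min at 37 °C to final concentrations of 0.1, 1, 10 and 100 µM in 0.5% DMSO. A FLIPR Tetra recorded Ca2+ flux at 8 frames/s for 100 s before and after exposure. Points of departure for each donor were derived by hierarchical Bayesian Hill fitting of vehicle-normalised beat frequency, decay-to-rise ratio or peak frequency. The thresholds applied were a 5% change, or a 95% loss for peak frequency.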

[2] = system: 1392 (donor line of iPSC-derived cardiomyocytes); test: as above
In short: as §1

[3] = system: 1434 (donor line of iPSC-derived cardiomyocytes); test: as above
In short: as §1

[4] = system: 1518 (donor line of iPSC-derived cardiomyocytes); test: as above
In short: as §1

[5] = system: 1535 (donor line of iPSC-derived cardiomyocytes); test: as above
In short: as §1

[6] = system: 1565 (donor line of iPSC-derived cardiomyocytes); test: as above
In short: as §1

[7] = system: 30171 (donor line of iPSC-derived cardiomyocytes); test: as above
In short: as §1

[8] = system: 1083 (donor line of iPSC-derived cardiomyocytes); test: POD (EC05) for increase in Ca2+ transient decay-to-rise ratio (QT prolongation) vs vehicle; higher = less potent (higher point of departure)
Description: (§2)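 Human iPSC-derived cardiomyocytes from 16 donors were exposed for 90 min at 37 °C to each PFAS at 0.1, 1, 10 and 100 µM in 0.5% DMSO, 384-well plates. Kinetic Ca2+ flux (FLIPR) and Hoechst nuclei counts were normalised to vehicle wells and fitted with a hierarchical Bayesian Hill model to give donor-specific PODs: EC05 for beat-rate increase or decrease and for decay-to-rise ratio increase (QT proxy), EC95 for peak-frequency loss (asystole), EC10 for total cell number loss. 0.03 µM is the lower bound.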

[9] = system: 1118 (donor line of iPSC-derived cardiomyocytes); test: as above
Description: as §2

[10] = system: 11235; test: as above
Description: as §2

[11] = system: 1309 (donor line of iPSC-derived cardiomyocytes); test: as above
Description: as §2

[12] = system: 1368 (donor line of iPSC-derived cardiomyocytes); test: as above
Description: as §2

[13] = system: 1392; test: as above
Description: as §2

[14] = system: 1434; test: as above
Description: as §2

[15] = system: 1535; test: as above
Description: as §2

[16] = system: 1565; test: as above
Description: as §2

[17] = system: 20032 (donor line of iPSC-derived cardiomyocytes); test: as above
Description: as §2

[18] = system: 20084 (donor line of iPSC-derived cardiomyocytes); test: as above
Description: as §2

[19] = system: 30145 (donor line of iPSC-derived cardiomyocytes); test: as above
Description: as §2

[20] = system: 30171; test: as above
Description: as §2

SMILES	POD vs vehicle [1] [µM]	POD vs vehicle [2] [µM]	POD vs vehicle [3] [µM]	POD vs vehicle [4] [µM]	POD vs vehicle [5] [µM]	POD vs vehicle [6] [µM]	POD vs vehicle [7] [µM]	POD vs vehicle [8] [µM]	POD vs vehicle [9] [µM]	POD vs vehicle [10] [µM]	POD vs vehicle [11] [µM]	POD vs vehicle [12] [µM]	POD vs vehicle [13] [µM]	POD vs vehicle [14] [µM]	POD vs vehicle [15] [µM]	POD vs vehicle [16] [µM]	POD vs vehicle [17] [µM]	POD vs vehicle [18] [µM]	POD vs vehicle [19] [µM]	POD vs vehicle [20] [µM]
NC(=O)C(F)(F)C(F)(F)C(F)(F)C(F)F	> 100	> 100	> 100	> 100	> 100	> 100	> 100	> 100	7.19	> 100	> 100	> 100	> 100	0.543	> 100	1.78	0.131	> 100	> 100	17
O=S(=O)(O)C(F)(F)C(F)(F)C(F)(F)C(F)(F)C(F)(F)C(F)(F)F [Perfluorohexanesulfonic_acid]	> 100	> 100	> 100	> 100	> 100	> 100	> 100	> 100	> 100	> 100	> 100	> 100	> 100	> 100	> 100	> 100	> 100	> 100	> 100	21.2
OCC(F)(F)C(F)(F)C(F)(F)C(F)(F)C(F)(F)C(F)(F)F [6:1 Fluorotelomer alcohol]	> 100	> 100	> 100	> 100	> 100	> 100	> 100	> 100	> 100	> 100	> 100	> 100	> 100	> 100	> 100	> 100	> 100	> 100	> 100	> 100
OCC(F)(F)C(F)(F)C(F)(F)F [Heptafluorobutanol]	> 100	> 100	> 100	> 100	> 100	> 100	> 100	> 100	> 100	> 100	> 100	> 100	> 100	> 100	> 100	> 100	> 100	> 100	> 100	> 100
O=C(O)C(F)(F)C(F)(F)C(F)(F)C(F)(F)C(F)(F)C(F)(F)C(F)(F)C(F)(F)F [Perfluorononanoic_acid]	> 100	> 100	> 100	> 100	> 100	> 100	> 100	> 100	> 100	> 100	> 100	> 100	> 100	> 100	> 100	> 100	> 100	> 100	> 100	> 100
O=C(O)C(F)(F)C(F)(F)C(F)(F)OC(F)(F)F [Perfluoro(4-methoxybutanoic)_acid]	> 100	> 100	> 100	> 100	> 100	> 100	> 100	> 100	> 100	> 100	> 100	> 100	> 100	> 100	> 100	> 100	> 100	> 100	> 100	> 100
OCC(F)(F)C(F)(F)C(F)(F)C(F)(F)C(F)(F)C(F)F [Dodecafluoroheptanol]	> 100	> 100	> 100	> 100	> 100	> 100	> 100	> 100	> 100	> 100	> 100	> 100	> 100	> 100	> 100	> 100	0.504	> 100	> 100	> 100
O=S(=O)(O)CCC(F)(F)C(F)(F)C(F)(F)C(F)(F)C(F)(F)C(F)(F)C(F)(F)C(F)(F)F [8:2 Fluorotelomer sulfonic acid]	> 100	> 100	> 100	> 100	> 100	> 100	> 100	> 100	> 100	> 100	> 100	> 100	> 100	17.2	> 100	> 100	> 100	21.9	> 100	20.1
OCCC(F)(F)C(F)(F)C(F)(F)C(F)(F)C(F)(F)C(F)(F)F [6:2 Fluorotelomer alcohol]	> 100	> 100	1.73	> 100	5.24	> 100	> 100	> 100	> 100	> 100	> 100	> 100	> 100	> 100	> 100	> 100	> 100	> 100	> 100	> 100
O=C(O)C(F)(F)C(F)(F)OC(F)(F)F [Perfluoro-3-methoxypropanoic_acid]	> 100	> 100	> 100	> 100	> 100	> 100	> 100	> 100	> 100	> 100	> 100	> 100	> 100	> 100	> 100	> 100	> 100	> 100	> 100	> 100
COC(=O)C(F)(F)C(F)(F)OC(F)(C(F)(F)F)C(F)(F)OC(F)=C(F)F (stereo not given) [Methyl_perfluoro(3-(1-ethenyloxypropan-2-yloxy)propanoate)]	> 100	> 100	> 100	> 100	> 100	> 100	> 100	> 100	> 100	> 100	> 100	> 100	> 100	> 100	> 100	> 100	> 100	37.5	> 100	> 100
O=S(=O)(O)CCC(F)(F)C(F)(F)C(F)(F)C(F)(F)F [4:2 Fluorotelomer sulfonic acid]	> 100	> 100	> 100	> 100	> 100	> 100	> 100	> 100	> 100	> 100	> 100	> 100	> 100	> 100	> 100	> 100	> 100	> 100	> 100	> 100
O=C(O)CCC(F)(F)C(F)(F)C(F)(F)C(F)(F)C(F)(F)C(F)(F)C(F)(F)F [3-Perfluoroheptylpropanoic_acid]	> 100	> 100	> 100	> 100	> 100	> 100	> 100	> 100	> 100	> 100	> 100	> 100	> 100	> 100	> 100	> 100	33.8	36.7	> 100	> 100
OCCC(F)(F)C(F)(F)C(F)(F)C(F)(F)F [4:2 Fluorotelomer alcohol]	> 100	> 100	> 100	> 100	> 100	> 100	> 100	> 100	> 100	> 100	> 100	> 100	> 100	> 100	> 100	> 100	> 100	> 100	> 100	> 100
OCC(F)(F)C(F)(F)C(F)(F)CO [Hexafluoroamylene_glycol]	> 100	> 100	> 100	> 100	> 100	> 100	> 100	> 100	> 100	> 100	> 100	> 100	> 100	> 100	> 100	> 100	> 100	> 100	> 100	> 100
O=C(O)C(F)(F)C(F)(F)C(F)(F)OC(F)(C(F)(F)F)C(F)(F)F [Perfluoro-4-isopropoxybutanoic_acid]	> 100	> 100	> 100	> 100	> 100	> 100	> 100	> 100	> 100	> 100	> 100	> 100	> 100	> 100	> 100	> 100	> 100	> 100	> 100	> 100
O=S(=O)(O)C(F)(F)C(F)(F)C(F)(F)C(F)(F)C(F)(F)C(F)(F)C(F)(F)C(F)(F)F [Perfluorooctanesulfonic_acid]	> 100	> 100	> 100	> 100	> 100	> 100	> 100	> 100	> 100	> 100	> 100	> 100	> 100	> 100	> 100	> 100	> 100	> 100	> 100	> 100
